Measurements as given in US11896035B2, “Chemical mitigants in animal feed and feed ingredients” (priority 2014, dated 2024).

Tested on: PEDv
Assay: PEDv RT-PCR (Ct) in chemically treated, then inoculated feed matrices
Set-up: species or system Porcine Epidemic Diarrhea virus
Settings: room temperature; for Spray Dried Plasma Average CT Count: spray dried animal plasma
Procedure: In a third study, experiments were conducted to evaluate the effectiveness of various chemical mitigation strategies on post-processing contamination of PEDv in feed and feed components. Treatments were arranged in a 7×4 factorial with 6 chemical treatments plus a control, and 4 feed matrices. […] The 4 feed matrices included: 1) complete swine diet (complete nursery diet), 2) blood meal, 3) porcine meat and bone meal (MBM), and 4) spray-dried animal plasma. The 4 feed treatments×6 chemical treatments (plus 1 control) equaled 28-1 kg batches. The feed matrices were chemically treated first and then inoculated to represent post-processing contamination. […] There were 3 segregated replicates of each batch for each day of analysis. All samples were stored at room temperature. Untreated control supernant from each of the 4 feed matrixes on day 0 was harvested and aliquots frozen and used as controls for subsequent analysis days Each day these samples were used as laboratory controls to evaluate inter assay variation.
Samples were analyzed for PEDv by RT-PCR. Analyzed values represent cycle time or cycle threshold (Ct.) before detection, Lower Ct values indicate greater nucleic acid presence, but not necessarily infectivity. Data were analyzed using the GLIMMIX procedure of SAS with fixed effects of chemical treatment, matrix, and time, as well as all interactions.

[Na+].[O-][Cl+2]([O-])[O-] [Sodium chlorate, sodium chlorate]
Porcine Blood Meal Average Ct Count (day 0): 29 | Porcine Blood Meal Average Ct Count (day 1): 29 | Porcine Blood Meal Average Ct Count (day 3): 31 | Porcine Blood Meal Average Ct Count (day 7): 32 | Porcine Blood Meal Average Ct Count (day 14): 33 | Porcine Blood Meal Average Ct Count (day 21): 36 | Porcine Blood Meal Average Ct Count (day 42): 36 | Porcine Meat and Bone Meal Average CT Count (day 0): 26 | Porcine Meat and Bone Meal Average CT Count (day 1): 25 | Porcine Meat and Bone Meal Average CT Count (day 3): 27 | Porcine Meat and Bone Meal Average CT Count (day 7): 27 | Porcine Meat and Bone Meal Average CT Count (day 14): 28 | Porcine Meat and Bone Meal Average CT Count (day 21): 27 | Porcine Meat and Bone Meal Average CT Count (day 42): 29 | Spray Dried Plasma Average CT Count (day 0): 28 | Spray Dried Plasma Average CT Count (day 1): 26 | Spray Dried Plasma Average CT Count (day 3): 28 | Spray Dried Plasma Average CT Count (day 7): 28 | Spray Dried Plasma Average CT Count (day 14): 28 | Spray Dried Plasma Average CT Count (day 21): 29 | Spray Dried Plasma Average CT Count (day 42): 28 | Swine Diet Average Ct Count (day 0): 28 | Swine Diet Average Ct Count (day 1): 28 | Swine Diet Average Ct Count (day 3): 29 | Swine Diet Average Ct Count (day 7): 30 | Swine Diet Average Ct Count (day 14): 29 | Swine Diet Average Ct Count (day 21): 32 | Swine Diet Average Ct Count (day 42): 32
